The subject of data set [1] is CHO. In words: Cytotoxicity against CHO cells at =< 200 uM. Type of data set: cell-based, Cricetulus griseus. As to conditions: chinese hamster.
Data set [2] has as its target Integrin alpha-2 (Homo sapiens) (UniProt P17301). In words: Inhibition of integrin alpha-2 domain binding to collagen 1 by Europium-labeled anti-GST assay relative to control. The conditions noted are these: concentration not given here.
In data set [3] the test system is CHO. The data set is described as follows: Inhibition of integrin alpha-2 expressing CHO cell adhesion to collagen 1 at 10 uM. The conditions noted are these: Cricetulus griseus. The format is functional.
The nature of data set [4]: Inhibition of integrin alpha-2 E318W mutant binding to collagen 1 by Europium-labeled anti-GST assay. Further details: species or system Homo sapiens.
Data set [5] concerns CHO. The data set is described as follows: Cytotoxicity against CHO cells at =< 50 uM. As to conditions: chinese hamster. Type of data set: cell-based, Cricetulus griseus.
Data set [6] is described as follows: Inhibition of integrin alpha-2 E318W mutant binding to collagen 4 by Europium-labeled anti-GST assay. Also on record: species or system Homo sapiens.
For data set [7], the system named is CHO. In words: Inhibition of integrin alpha2 Y285F beta-1 mutant binding to collagen 1 in CHO cells. The format is cell-based. The conditions noted are these: Homo sapiens.
Data set [8] concerns the target T1, Integrin alpha-11 (Homo sapiens) (UniProt Q9UKX5).
T1 sequence (whole entry): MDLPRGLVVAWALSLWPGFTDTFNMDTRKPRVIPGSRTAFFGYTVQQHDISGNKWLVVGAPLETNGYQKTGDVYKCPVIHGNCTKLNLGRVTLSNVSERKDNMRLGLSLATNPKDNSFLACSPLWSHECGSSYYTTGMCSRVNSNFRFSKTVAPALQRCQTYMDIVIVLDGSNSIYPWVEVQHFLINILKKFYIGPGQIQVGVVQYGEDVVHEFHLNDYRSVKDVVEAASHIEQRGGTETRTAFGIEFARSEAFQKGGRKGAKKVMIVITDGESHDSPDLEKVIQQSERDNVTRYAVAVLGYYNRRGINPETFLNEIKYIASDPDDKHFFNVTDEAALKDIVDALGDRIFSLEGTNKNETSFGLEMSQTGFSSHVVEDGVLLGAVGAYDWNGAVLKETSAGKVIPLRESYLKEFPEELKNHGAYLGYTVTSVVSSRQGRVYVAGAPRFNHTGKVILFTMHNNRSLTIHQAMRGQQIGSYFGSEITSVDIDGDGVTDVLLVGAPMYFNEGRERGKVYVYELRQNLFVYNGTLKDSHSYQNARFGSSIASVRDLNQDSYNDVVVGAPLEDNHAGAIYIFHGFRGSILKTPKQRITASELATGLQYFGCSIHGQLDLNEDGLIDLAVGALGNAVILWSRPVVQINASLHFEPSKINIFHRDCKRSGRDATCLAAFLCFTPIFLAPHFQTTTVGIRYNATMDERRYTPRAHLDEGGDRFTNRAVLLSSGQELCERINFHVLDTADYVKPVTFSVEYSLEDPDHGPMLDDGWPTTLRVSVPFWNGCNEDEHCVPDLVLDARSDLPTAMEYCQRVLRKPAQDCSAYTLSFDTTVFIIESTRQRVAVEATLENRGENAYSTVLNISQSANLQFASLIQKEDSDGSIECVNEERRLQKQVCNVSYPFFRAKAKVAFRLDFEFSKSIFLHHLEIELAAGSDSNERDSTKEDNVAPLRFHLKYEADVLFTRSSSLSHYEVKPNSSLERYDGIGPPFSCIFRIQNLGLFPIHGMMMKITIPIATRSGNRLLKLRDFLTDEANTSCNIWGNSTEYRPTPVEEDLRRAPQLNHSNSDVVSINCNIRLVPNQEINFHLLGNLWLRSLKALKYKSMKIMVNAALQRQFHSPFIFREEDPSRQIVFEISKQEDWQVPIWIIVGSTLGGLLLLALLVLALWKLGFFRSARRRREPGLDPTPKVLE
The data set is described as follows: Inhibition of integrin alpha-11 binding to collagen 1 at 50 uM.

Data set [9] concerns the target T2, Integrin alpha-10 (Homo sapiens) (UniProt O75578).
T2 sequence (whole entry): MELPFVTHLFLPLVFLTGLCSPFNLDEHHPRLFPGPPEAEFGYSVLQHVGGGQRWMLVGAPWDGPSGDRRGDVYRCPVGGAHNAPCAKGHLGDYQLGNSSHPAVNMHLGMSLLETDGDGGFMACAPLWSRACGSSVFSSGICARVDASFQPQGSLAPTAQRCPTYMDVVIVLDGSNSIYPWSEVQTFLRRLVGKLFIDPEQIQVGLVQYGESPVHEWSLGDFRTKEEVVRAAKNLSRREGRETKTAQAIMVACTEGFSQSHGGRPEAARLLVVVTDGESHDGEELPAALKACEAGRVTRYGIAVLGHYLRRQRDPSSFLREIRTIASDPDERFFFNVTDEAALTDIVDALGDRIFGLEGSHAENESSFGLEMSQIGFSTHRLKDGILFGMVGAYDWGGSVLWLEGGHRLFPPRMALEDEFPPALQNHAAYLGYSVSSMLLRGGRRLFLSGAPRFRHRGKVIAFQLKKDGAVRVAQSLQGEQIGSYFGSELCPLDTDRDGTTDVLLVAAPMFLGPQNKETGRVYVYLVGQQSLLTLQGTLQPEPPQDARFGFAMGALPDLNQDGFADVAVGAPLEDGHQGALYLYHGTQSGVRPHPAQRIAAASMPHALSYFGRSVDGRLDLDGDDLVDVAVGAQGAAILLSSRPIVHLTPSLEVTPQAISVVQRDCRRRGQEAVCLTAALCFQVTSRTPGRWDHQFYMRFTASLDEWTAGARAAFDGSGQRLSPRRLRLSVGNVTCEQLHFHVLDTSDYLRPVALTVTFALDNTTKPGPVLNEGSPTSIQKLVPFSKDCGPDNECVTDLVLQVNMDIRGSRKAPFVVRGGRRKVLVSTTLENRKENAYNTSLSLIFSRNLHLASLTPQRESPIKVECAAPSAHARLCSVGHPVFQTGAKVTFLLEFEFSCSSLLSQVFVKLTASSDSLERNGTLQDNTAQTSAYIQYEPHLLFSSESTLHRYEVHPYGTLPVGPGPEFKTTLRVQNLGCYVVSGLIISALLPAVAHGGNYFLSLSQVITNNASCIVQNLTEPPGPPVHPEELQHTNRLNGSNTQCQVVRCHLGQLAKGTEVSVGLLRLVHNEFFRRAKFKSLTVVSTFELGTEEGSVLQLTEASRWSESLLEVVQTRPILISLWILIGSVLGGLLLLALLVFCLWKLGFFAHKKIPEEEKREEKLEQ
The data set is described as follows: Inhibition of integrin alpha-10 binding to collagen 1 at 50 uM.

Data set [10] concerns the target T3, Integrin alpha-2 (Homo sapiens, UniProt P17301).
T3 sequence (P17301 whole entry): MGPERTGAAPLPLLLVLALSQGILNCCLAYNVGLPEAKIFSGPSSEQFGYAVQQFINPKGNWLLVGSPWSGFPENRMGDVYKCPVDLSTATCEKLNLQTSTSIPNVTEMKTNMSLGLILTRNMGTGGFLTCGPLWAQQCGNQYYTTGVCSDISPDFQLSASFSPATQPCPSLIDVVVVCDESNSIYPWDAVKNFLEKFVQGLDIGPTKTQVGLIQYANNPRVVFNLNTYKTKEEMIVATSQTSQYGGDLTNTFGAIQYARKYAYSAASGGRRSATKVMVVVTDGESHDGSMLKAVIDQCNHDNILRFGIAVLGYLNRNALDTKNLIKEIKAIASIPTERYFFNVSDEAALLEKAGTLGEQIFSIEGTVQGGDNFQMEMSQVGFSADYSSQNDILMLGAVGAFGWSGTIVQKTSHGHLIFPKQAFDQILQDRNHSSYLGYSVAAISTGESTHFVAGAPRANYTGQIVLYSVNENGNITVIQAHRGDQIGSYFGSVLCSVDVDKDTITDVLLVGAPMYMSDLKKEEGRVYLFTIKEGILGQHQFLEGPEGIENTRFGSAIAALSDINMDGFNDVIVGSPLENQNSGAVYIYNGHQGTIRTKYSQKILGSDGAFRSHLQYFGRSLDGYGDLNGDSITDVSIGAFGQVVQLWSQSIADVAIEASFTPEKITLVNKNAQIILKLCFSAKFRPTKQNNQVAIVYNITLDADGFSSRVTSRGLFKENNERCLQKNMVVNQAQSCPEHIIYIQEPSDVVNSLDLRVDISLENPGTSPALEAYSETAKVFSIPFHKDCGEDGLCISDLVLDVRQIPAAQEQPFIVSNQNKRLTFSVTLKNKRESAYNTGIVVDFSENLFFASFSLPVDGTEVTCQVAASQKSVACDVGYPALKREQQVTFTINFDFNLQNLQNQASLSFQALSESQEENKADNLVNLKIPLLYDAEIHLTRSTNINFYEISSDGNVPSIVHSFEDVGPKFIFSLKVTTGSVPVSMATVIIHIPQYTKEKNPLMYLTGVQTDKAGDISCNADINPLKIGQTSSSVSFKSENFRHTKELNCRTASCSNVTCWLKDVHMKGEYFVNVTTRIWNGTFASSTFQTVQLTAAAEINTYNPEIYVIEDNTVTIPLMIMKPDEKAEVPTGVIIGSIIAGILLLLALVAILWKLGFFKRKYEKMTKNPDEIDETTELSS
The data set is described as follows: Inhibition of integrin alpha-2 domain binding to collagen 1 by Europium-labeled anti-GST assay.

Data set [11] has as its target Integrin alpha-2 (Homo sapiens) (UniProt P17301). In words: Inhibition of integrin alpha-2 binding to collagen 4 at 50 uM.
Data set [12] concerns the target Integrin alpha-1 (Homo sapiens) (UniProt P56199). The data set is described as follows: Inhibition of integrin alpha-1 binding to collagen 1 at 50 uM.
Data set [13] has the same target. In words: Inhibition of integrin alpha-1 binding to collagen 4 at 50 uM.

Active and inactive are the calls of the source. No cut-off for these calls is given here.

Sequence of Integrin alpha-1 (Homo sapiens) (P56199 whole entry): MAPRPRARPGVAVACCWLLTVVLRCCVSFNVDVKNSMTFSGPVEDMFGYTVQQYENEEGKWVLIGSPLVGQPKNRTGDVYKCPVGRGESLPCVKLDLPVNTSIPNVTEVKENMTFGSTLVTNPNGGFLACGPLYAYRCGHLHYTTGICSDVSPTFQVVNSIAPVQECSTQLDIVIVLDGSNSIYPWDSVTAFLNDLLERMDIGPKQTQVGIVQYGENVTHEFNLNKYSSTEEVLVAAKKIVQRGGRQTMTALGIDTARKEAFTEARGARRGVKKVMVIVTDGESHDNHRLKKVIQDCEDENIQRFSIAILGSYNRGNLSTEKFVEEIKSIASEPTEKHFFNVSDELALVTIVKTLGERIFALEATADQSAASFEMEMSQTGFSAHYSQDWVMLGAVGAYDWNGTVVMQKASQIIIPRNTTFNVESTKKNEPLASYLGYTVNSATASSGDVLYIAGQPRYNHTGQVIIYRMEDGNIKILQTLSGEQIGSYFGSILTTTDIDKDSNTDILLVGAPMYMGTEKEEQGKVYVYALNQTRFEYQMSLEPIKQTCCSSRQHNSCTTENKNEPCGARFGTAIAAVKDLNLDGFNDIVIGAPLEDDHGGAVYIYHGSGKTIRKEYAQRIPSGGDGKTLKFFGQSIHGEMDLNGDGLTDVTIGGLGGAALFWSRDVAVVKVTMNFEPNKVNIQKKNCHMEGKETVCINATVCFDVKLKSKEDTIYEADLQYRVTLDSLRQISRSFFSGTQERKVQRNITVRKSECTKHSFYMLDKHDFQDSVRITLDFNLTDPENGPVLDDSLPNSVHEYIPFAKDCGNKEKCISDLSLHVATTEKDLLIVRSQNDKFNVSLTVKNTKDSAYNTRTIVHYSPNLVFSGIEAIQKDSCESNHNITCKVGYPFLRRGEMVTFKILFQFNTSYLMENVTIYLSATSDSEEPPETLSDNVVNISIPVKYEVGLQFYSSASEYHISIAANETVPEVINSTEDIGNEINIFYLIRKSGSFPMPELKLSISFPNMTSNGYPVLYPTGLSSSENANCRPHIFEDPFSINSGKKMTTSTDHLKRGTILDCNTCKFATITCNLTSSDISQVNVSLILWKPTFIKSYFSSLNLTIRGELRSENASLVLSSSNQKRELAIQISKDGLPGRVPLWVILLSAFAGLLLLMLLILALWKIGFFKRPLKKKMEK

Consider `CCc1cc(NCCO)c2c(O)c3c(c(O)c2c1C(=O)OC)C(=O)c1cccc(O)c1C3=O`, for which, in data set [1], the Activity result is “Non-toxic”. The inhibition (commonly the relative decrease from the control value, in per cent) in data set [2] was 0%. Moreover, the inhibition at 10 µM in [3] is 30%.
With `CCc1cc(O)c2c(O)c3c(c(O)c2c1C(=O)OC)C(=O)c1cccc(O)c1C3=O` [ANHYDROMAGGIEMYCIN], the IC50 (commonly the concentration that inhibits the measured activity by half) in [4] turned out to be 160 µM; in data set [6], 131 µM. The Activity entry in [5] is given as “Non-toxic”. The inhibition in [2] is 100%; in data set [7] it was -3.3%. Moreover, in [3], the inhibition at 10 µM was 35%.
For the compound `CCC1(O)CC(=O)c2c(O)c3c(c(O)c2C1C(=O)OC)C(=O)c1cccc(O)c1C3=O` (stereo unspecified) [MAGGIEMYCIN], in data set [1], the Activity entry was “Non-toxic”. In [2], the inhibition turned out to be 65%. In addition, the inhibition at 10 µM in [3] came to 10%.
In the case of `COC(=O)c1c(C(C)C)cc(O)c2c(O)c3c(c(O)c12)C(=O)c1cccc(O)c1C3=O`, the Activity result in data set [5] was “Non-toxic”. For the same compound, the outcome in [8] and in data set [9] was Active. Moreover, in data set [2], the inhibition turned out to be 90%. For the same compound, the inhibition at 10 µM in data set [3] worked out at 40%.
On to `CCc1cc(O)c2c(O)c3c(cc2c1C(=O)OC)C(=O)c1cccc(O)c1C3=O`, for which, in data set [10], the IC50 is 50 µM. The outcome in data set [11], in data set [12] and in data set [13] was Active.

(Values after ChEMBL document CHEMBL1143057, “Small molecule designed to target metal binding site in the alpha2I domain inhibits integrin function” (J Med Chem, 2007).)
